From the NIST ThermoML archive (doi:10.1021/je100078w)
Numbers after ± are expanded uncertainties.

Assays:
[1] = Liquid
[2] = wn = mass fraction of the nth substance listed; settings: 101 kPa, Liquid

F[B-](F)(F)F.[NH3+]CCO [2-hydroxyethanaminium tetrafluoroborate]
[1], 101.33 kPa
Settings	mass density [kg/m3]
303.15 K	1490.57 ± 3.2
313.15 K	1482.62 ± 3.1
323.15 K	1474.94 ± 3.1
333.15 K	1467.85 ± 3
343.15 K	1464.59 ± 3

[1], 101.33 kPa, Concentric cylinders viscometry
Settings	viscosity [mPa·s]
303.15 K	59.39 ± 5.6
313.15 K	48.68 ± 4.6
333.15 K	32.85 ± 3.1
343.15 K	27.84 ± 2.6

C[NH+](CCO)CCO.C[NH+](CCO)CCO.C[NH+](CCO)CCO.O=P([O-])([O-])[O-] [2-hydroxy-N-(2-hydroxyethyl)-N-methylethanaminium phosphate]
[1], 101.33 kPa
Settings	mass density [kg/m3]	viscosity [mPa·s]
303.15 K	1215.95 ± 2.1	–
313.15 K	1208.49 ± 2.1	2483 ± 520
323.15 K	1200.88 ± 2.1	1426 ± 260
333.15 K	1193.23 ± 2	822.5 ± 120
343.15 K	1185.52 ± 2	385.4 ± 43

OCCN(CCO)CCO [triethanolamine] + O
[2], w1 = 0.3
Settings	mass density [kg/m3]	viscosity [mPa·s]
303.15 K	1042.75 ± 1	2.354 ± 0.061
313.15 K	1037.93 ± 0.99	1.799 ± 0.051
323.15 K	1032.21 ± 0.97	1.425 ± 0.044
333.15 K	1023.74 ± 0.93	1.172 ± 0.04
343.15 K	1011.68 ± 0.88	0.9591 ± 0.036

CN(CCO)CCO.CN(CCO)CCO.O=S(=O)(O)O [2,2'-(methylimino)diethanol sulfate (2:1)]
[1], 101.33 kPa
Settings	mass density [kg/m3]	viscosity [mPa·s]
303.15 K	1282.49 ± 2.5	–
313.15 K	1276.83 ± 2.4	1858 ± 360
323.15 K	1271.25 ± 2.4	990.8 ± 160
333.15 K	1265.72 ± 2.4	571.2 ± 75
343.15 K	1260.24 ± 2.4	350.4 ± 37

CN(CCO)CCO [N-methyldiethanolamine]
[1], 101.33 kPa
Settings	mass density [kg/m3]
303.15 K	1033.74 ± 0.48
313.15 K	1026.72 ± 0.46
323.15 K	1019.48 ± 0.44
333.15 K	1012.32 ± 0.42
343.15 K	1002.25 ± 0.39

[1], 101.33 kPa, Concentric cylinders viscometry
Settings	viscosity [mPa·s]
303.15 K	57.69 ± 0.45
313.15 K	34.79 ± 0.29
323.15 K	21.88 ± 0.18
333.15 K	14.6 ± 0.12
343.15 K	9.855 ± 0.082

CCCCn1cc[n+](C)c1.F[B-](F)(F)F [1-butyl-3-methylimidazolium tetrafluoroborate] + O
[2], w1 = 0.2998
Settings	mass density [kg/m3]	viscosity [mPa·s]
303.15 K	1045.35 ± 1.3	1.292 ± 0.042
313.15 K	1039.84 ± 1.3	1.046 ± 0.038
323.15 K	1033.76 ± 1.3	0.8731 ± 0.035
333.15 K	1027.74 ± 1.2	0.7473 ± 0.033
343.15 K	1021.18 ± 1.2	0.6549 ± 0.031

NCCO [2-aminoethan-1-ol] + O
[2], w1 = 0.3002
Settings	mass density [kg/m3]	viscosity [mPa·s]
303.15 K	1013.02 ± 0.88	2.093 ± 0.056
313.15 K	1007.98 ± 0.86	1.603 ± 0.048
323.15 K	1003.42 ± 0.84	1.271 ± 0.042
333.15 K	997.157 ± 0.83	1.037 ± 0.038
343.15 K	989.924 ± 0.85	0.8681 ± 0.035

OCCN(CCO)CCO [triethanolamine]
[1], 101 kPa
Settings	mass density [kg/m3]	viscosity [mPa·s]
303.15 K	1114.43 ± 3.4	398.2 ± 120
313.15 K	1108.34 ± 3.3	195.9 ± 37
323.15 K	1102.23 ± 3.2	103.6 ± 11
333.15 K	1095.96 ± 3.1	60.81 ± 1.7
343.15 K	1089.6 ± 3	37.94 ± 1.3

CCCCn1cc[n+](C)c1.F[B-](F)(F)F [1-butyl-3-methylimidazolium tetrafluoroborate] + OCCN(CCO)CCO
[2], w2 = 0
Settings	mass density [kg/m3]	viscosity [mPa·s]
303.15 K	1195.7 ± 4.8	68.9 ± 3.1
313.15 K	1188.62 ± 4.7	44.73 ± 1.5
323.15 K	1181.59 ± 4.6	30.81 ± 1
333.15 K	1174.6 ± 4.5	22.28 ± 0.76
343.15 K	1167.67 ± 4.3	16.75 ± 0.58

C[NH+](CCO)CCO.[Cl-] [2-hydroxy-N-(2-hydroxyethyl)-N-methylethanaminium chloride]
[1], 101.33 kPa
Settings	mass density [kg/m3]	viscosity [mPa·s]
303.15 K	1180.42 ± 1.9	512.1 ± 64
313.15 K	1174.71 ± 1.9	278.2 ± 26
323.15 K	1169.24 ± 1.9	164.2 ± 11
333.15 K	1163.75 ± 1.9	104.1 ± 4.3
343.15 K	1158.29 ± 1.8	70.45 ± 1.5

CN(CCO)CCO [N-methyldiethanolamine] + O
[2], w1 = 0.3002
Settings	mass density [kg/m3]	viscosity [mPa·s]
303.15 K	1022.9 ± 0.93	2.612 ± 0.066
313.15 K	1018 ± 0.91	1.937 ± 0.054
323.15 K	1012.96 ± 0.88	1.505 ± 0.046
333.15 K	1006.92 ± 0.86	1.207 ± 0.041
343.15 K	–	0.8944 ± 0.035

C[NH+](CCO)CCO.[Cl-] [2-hydroxy-N-(2-hydroxyethyl)-N-methylethanaminium chloride] + O
[2]
Settings	mass density, 303.15 K [kg/m3]	mass density, 313.15 K [kg/m3]	mass density, 323.15 K [kg/m3]	mass density, 333.15 K [kg/m3]	mass density, 343.15 K [kg/m3]	viscosity, 303.15 K [mPa·s]	viscosity, 313.15 K [mPa·s]	viscosity, 323.15 K [mPa·s]	viscosity, 333.15 K [mPa·s]	viscosity, 343.15 K [mPa·s]
w1 = 0.3001	–	–	–	–	–	1.539 ± 0.048	1.265 ± 0.042	1.067 ± 0.039	0.8862 ± 0.035	0.7911 ± 0.034
w1 = 0.3006	1058.44 ± 1.7	1053.89 ± 1.7	1049.23 ± 1.7	1043.31 ± 1.6	1037.05 ± 1.6	–	–	–	–	–
